Columns and labels:
human glucagon receptor = target: T1, human glucagon receptor (Homo sapiens, UniProt P47871); test: Human glucagon receptor affinity ([125I]glucagon displacement, membrane preparation); type: binding; settings: human glucagon receptor binding assay; stereo column says racemic or R-isomer; read-out: Hu IC50
T1 construct: host or cells: human liver samples or a recombinant cell line (alternatives)
Procedure: Compounds provided herein are dissolved in a suitable solvent (e.g., dimethlysulfoxide) at a concentration of 10 mM and then diluted in buffer (e.g., 50 mM Hepes, pH 7.4, 5 mM MgCl2, 1 mM CaCl2, and 0.2% BSA) to concentrations ranging from 1 nM to 100 μM. Compounds (20 μL/well) and [^125I]glucagon at the final concentration of 0.125 nM (20 μl/well) (Perkin Elmer) are added to and mixed in wells of a 96-well plate (Costar, Corning) containing 120 μL of buffer. Next, an appropriate aliquot of a membrane preparation containing the human glucagon receptor (isolated from human liver samples or obtained from a recombinant cell line) is added to the wells. The binding mixtures are incubated for 2 hrs at room temperature. In the meantime, a MultiScreen 96-well filter plate (Millipore) is treated with 200 μL of the buffer, which is vacuumed through the filter just before the binding mixtures are transferred to the plate. At the end of incubation, binding mixtures are transferred to the wells of the MultiScreen 96-well filter plate and filtered through by applying vacuum. The plate is washed once with 200 μL per well of the buffer, and the filters are dried and counted using a gamma counter.

human hepatocytes = test: Functional antagonism of glucagon-stimulated glucose production in hepatocytes; type: cell-based; settings: human hepatocyte assay, 1 nM glucagon; read-out: Hu Hepatocyte EC50
Procedure: Primary human, monkey, dog, rat, or mouse hepatocytes are seeded onto collagen-coated 24-well plates in Williams E medium (supplemented with 10% fetal bovine serum) and incubated at 37° C. overnight in M199 medium (supplemented with 15 mM glucose and 10 nM human insulin). The following day cells are washed twice with a glucose-free Kreb-bicarbonate buffer, pH 7.4, containing 0.1% BSA. Cells are then incubated at 37° C. with the aforementioned buffer containing 1 nM glucagon and varying concentrations of a glucagon antagonist (0-100 microM). Control wells without glucagon or antagonist are also included. After 1 hour, an aliquot of the medium is removed and analyzed for glucose content by means of the glucose oxidase method. The background glucose levels observed in the control wells are subtracted from the glucagon and antagonist containing wells. A graph of % glucose concentration vs drug concentration is plotted and an EC50 value for inhibition of glucose production generated using Sigmaplot software (SAS, Cary, N.C.). Alternatively, intracellular cAMP levels are measured using standard kits and EC50 values determined by plotting these levels against drug concentration. Antagonists of the glucagon receptor inhibit glucagon-induced cAMP production.

[1] = Oral bioavailability in the rat; type: in vivo
db/db mouse = test: Glucose lowering in db/db mice; type: in vivo; settings: oral gavage, freely-feeding db/db mice, 100% = normalization to lean db/+, read-out: % Glu lowering in db/db mouse @ 30 mg/kg
Procedure: To assess the effects of compounds provided herein on blood glucose levels in the db/db mouse, an animal model of type 2 diabetes, compounds are dissolved in polyethylene glycol-400 and administered by oral gavage to db/db mice in the freely-feeding state at doses of 30 and/or 100 mg/kg. Blood glucose levels are assessed in blood samples obtained by tail bleed at baseline (prior to drug administration) and at regular time intervals over 24 hrs using a portable glucometer such as the OneTouch or HemoCue meters. The magnitude of blood glucose lowering elicited by the compounds provided herein is determined by comparison to those in db/db mice administered only the vehicle. The percentage glucose lowering is calculated by factoring in the blood glucose levels of vehicle-treated lean db/+ (heterozygote) mice, with 100% representing the normalization of blood glucose levels from the hyperglycemic state (vehicle-treated db/db mice) to the normoglycemic state (vehicle-treated db/+ mice).

T1 sequence (P47871 26-477): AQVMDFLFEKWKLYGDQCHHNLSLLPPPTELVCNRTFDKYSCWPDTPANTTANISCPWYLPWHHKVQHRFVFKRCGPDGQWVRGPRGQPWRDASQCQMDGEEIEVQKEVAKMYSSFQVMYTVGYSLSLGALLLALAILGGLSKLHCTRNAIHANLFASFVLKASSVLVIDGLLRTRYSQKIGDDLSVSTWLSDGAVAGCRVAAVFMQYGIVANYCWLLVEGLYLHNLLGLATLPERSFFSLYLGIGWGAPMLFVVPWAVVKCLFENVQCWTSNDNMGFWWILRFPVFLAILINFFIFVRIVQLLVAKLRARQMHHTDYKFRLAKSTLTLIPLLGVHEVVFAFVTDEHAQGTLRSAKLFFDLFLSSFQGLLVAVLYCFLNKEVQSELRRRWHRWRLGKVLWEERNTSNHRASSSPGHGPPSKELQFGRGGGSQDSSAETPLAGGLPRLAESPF

Cc1cc(C)c(-c2ccc(NC(=O)[C@H](Cc3ccc(C(=O)NCCS(=O)(=O)O)cc3)c3ccc(-c4ccc(C(C)(C)C)cc4)cc3)cc2)c(C)c1
IC50 (human glucagon receptor): 0.005 µM
EC50 (human hepatocytes): 0.004 µM
OBAV in rat [1]: 73%
inhibition in vivo at 30 mg/kg (db/db mouse): 57%

Cc1cc(Cl)ccc1-c1ccc(NC(=O)[C@H](Cc2ccc(C(=O)NCCS(=O)(=O)O)cc2)c2cccc(C3CCC(C)(C)CC3)c2)cc1
IC50 (human glucagon receptor): 0.01 µM
EC50 (human hepatocytes): 0.012 µM
OBAV in rat [1]: 52%
inhibition in vivo at 30 mg/kg (db/db mouse): 45%

Cc1cc(Cl)ccc1-c1ccc(NC(=O)[C@H](Cc2ccc(C(=O)NCCS(=O)(=O)O)cc2)c2ccc([C@H]3CC[C@@H](C(C)(C)C)CC3)cc2)cc1
IC50 (human glucagon receptor): 0.009 µM
EC50 (human hepatocytes): 0.003 µM
OBAV in rat [1]: 54%
inhibition in vivo at 30 mg/kg (db/db mouse): 53%

Cc1cc(-c2ccc(NC(=O)[C@H](Cc3ccc(C(=O)NCCS(=O)(=O)O)cc3)c3ccc(-c4ccc(C(C)(C)C)cc4)cc3)cc2)ccc1Cl
IC50 (human glucagon receptor): 0.006 µM
EC50 (human hepatocytes): 0.031 µM
OBAV in rat [1]: 62%
inhibition in vivo at 30 mg/kg (db/db mouse): 33%

CC1(C)CC=C(c2ccc(NC(=O)[C@H](Cc3ccc(C(=O)NCCS(=O)(=O)O)cc3)c3ccc(-c4ccc(C(C)(C)C)cc4)cc3)cc2)CC1
IC50 (human glucagon receptor): 0.008 µM
EC50 (human hepatocytes): 0.036 µM
OBAV in rat [1]: 69%
inhibition in vivo at 30 mg/kg (db/db mouse): 29%

Cc1ccccc1-c1ccc(NC(=O)C(Cc2ccc(C(=O)NCCS(=O)(=O)O)cc2)c2ccc(-c3ccc(C(C)(C)C)cc3)cc2)cc1 (racemic)
IC50 (human glucagon receptor): 0.01 µM
EC50 (human hepatocytes): 0.194 µM
inhibition in vivo at 30 mg/kg (db/db mouse): 45%

Cc1cc(Cl)ccc1-c1ccc(NC(=O)C(Cc2ccc(C(=O)NCCS(=O)(=O)O)cc2)c2ccc(C3CCC(C(C)(C)C)CC3)cc2)cc1 (racemic)
IC50 (human glucagon receptor): 0.012 µM
EC50 (human hepatocytes): 0.041 µM
inhibition in vivo at 30 mg/kg (db/db mouse): 58%

Cc1cc(C(F)(F)F)ccc1-c1ccc(NC(=O)C(Cc2ccc(C(=O)NCCS(=O)(=O)O)cc2)c2ccc(C3=CCC(C)(C)CC3)cc2)cc1 (racemic)
IC50 (human glucagon receptor): 0.011 µM
EC50 (human hepatocytes): 0.03 µM
inhibition in vivo at 30 mg/kg (db/db mouse): 20%

Cc1cc(Cl)ccc1-c1ccc(NC(=O)C(Cc2ccc(C(=O)NCCS(=O)(=O)O)cc2)c2ccc(C3=CCC(C)(C)CC3)cc2)cc1 (racemic)
IC50 (human glucagon receptor): 0.017 µM
EC50 (human hepatocytes): 0.049 µM
OBAV in rat [1]: 48%
inhibition in vivo at 30 mg/kg (db/db mouse): 42%

Cc1cccc2oc(-c3ccc(NC(=O)C(Cc4ccc(C(=O)NCCS(=O)(=O)O)cc4)c4ccc(C=CC(C)(C)C)cc4)cc3)nc12 (racemic)
IC50 (human glucagon receptor): 0.013 µM
EC50 (human hepatocytes): 0.062 µM
inhibition in vivo at 30 mg/kg (db/db mouse): 39%

Cc1cc(Cl)ccc1-c1ccc(NC(=O)C(Cc2ccc(C(=O)NCCS(=O)(=O)O)cc2)c2cccc(C3=CCC(C)(C)CC3)c2)cc1 (racemic)
IC50 (human glucagon receptor): 0.009 µM
EC50 (human hepatocytes): 0.026 µM
OBAV in rat [1]: 38%
inhibition in vivo at 30 mg/kg (db/db mouse): 56%

CC1(C)CC=C(c2cccc(C(Cc3ccc(C(=O)NCCS(=O)(=O)O)cc3)C(=O)Nc3ccc(-c4ccc(Cl)cc4Cl)cc3)c2)CC1 (racemic)
IC50 (human glucagon receptor): 0.015 µM
EC50 (human hepatocytes): 0.03 µM
inhibition in vivo at 30 mg/kg (db/db mouse): 28%

CC(C)(C)c1ccc(-c2ccc(C(Cc3ccc(C(=O)NCCS(=O)(=O)O)cc3)C(=O)Nc3ccc(C4=CCCC4)cc3)cc2)cc1 (racemic)
IC50 (human glucagon receptor): 0.017 µM
EC50 (human hepatocytes): 0.065 µM
inhibition in vivo at 30 mg/kg (db/db mouse): 30%

CC(C)(C)C1CCC(c2ccc(C(Cc3ccc(C(=O)NCCS(=O)(=O)O)cc3)C(=O)Nc3ccc(-c4ccc(Cl)cc4Cl)cc3)cc2)CC1 (racemic) [drawing 106]
IC50 (human glucagon receptor): 0.016 µM
inhibition in vivo at 30 mg/kg (db/db mouse): 25%

Reference: patent publication US8907103B2, “Glucagon antagonists” (Metabasis Therapeutics, Inc., priority 2008, dated 2014)
